Measurements from US20250320496A1, “MODULATION OF ABCB11 GENE TRANSCRIPTION USING ANTISENSE OLIGONUCLEOTIDES TARGETING REGULATORY RNAS” (CAMP4 Therapeutics Corporation, priority 2022, published 2025).
Strand notation (5' to 3'): a small letter for the sugar, then the base; units joined by * are phosphorothioate-linked, units joined directly phosphodiester-linked; [ ] holds rarer units or linkages, { } end groups; capitals alone tell only the bases. e = 2'-O-(2-methoxyethyl) (MOE); l = locked nucleic acid (LNA); [5mC] = 5-methylcytosine; d = 2'-deoxy (DNA)

Tested on: human ABCB11 mRNA
Experiment: ASO treatment of primary human hepatocytes (PHH), ABCB11 mRNA by RT-qPCR normalized to B2M
Format: cell-based
Settings: for ABCB11 mRNA FC (5 μM ASO vs. UNT) / ABCB11 FC mRNA (5 μM ASO vs. untreated): primary human hepatocytes; for ABCB11 mRNA FC (5 μM ASO vs. UNT): normalized to untreated PHHs (UNT); for ABCB11 FC mRNA (5 μM ASO vs. untreated): 5 μM ASO with PO-modifications, normalized to untreated hepatocytes
Outline: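 ABCB11 mRNA was quantified by Taqman RT-qPCR relative to B2M and expressed as fold over untreated cells. Cells were cryopreserved primary human hepatocytes given ASO in Matrigel-supplemented medium 4 h after plating, at 1.25, 2.5, 5 or 10 μM (5 μM for screening), and harvested after 72 hrs.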

Substance | ABCB11 mRNA FC (5 μM ASO vs. UNT) | further results
CO-7047 (antisense eG*eA*eG*eT*eT*eG*eT*eG*eT*eT*eT*eT*eG*e[5mC]*eT*eT*eG*eG*eT*e[5mC]) | 1.175 fold change | 
CO-11229 (antisense eG*eTlG*eG*eA*lGe[5mC]*eA*lA*eAe[5mC]*lT*eA*eGlG*e[5mC]*eA*l[5mC]eT*eG) |  | ABCB11 FC mRNA (5 μM ASO vs. untreated): 2.83 fold change
CO-4481 (antisense e[5mC]*eA*eT*e[5mC]*eT*e[5mC]*eT*eG*eT*eG*eA*eA*eT*e[5mC]*eG*e[5mC]*eT*eA*eG*eT) | 1.18 fold change | 
CO-12750 (antisense eG*eT*eG*eAeG*eG*e[5mC]*eAeT*e[5mC]*eA*eGeG*eT*eA*eAeG*eT*eT*e[5mC]) |  | ABCB11 FC mRNA (5 μM ASO vs. untreated): 1.39 fold change
CO-3989 (antisense eA*eA*eG*eA*eT*eG*e[5mC]*eT*eA*e[5mC]*eA*eA*eT*eT*eG*e[5mC]*e[5mC]*eA*eT*eA) | 1.19 fold change | 
CO-7022 (antisense eT*e[5mC]*eT*eG*eG*dA*dA*dA*dA*dT*dA*dA*dT*dG*d[5mC]*e[5mC]*eT*eT*eT*e[5mC]) | 1.224 fold change | 
CO-7095 (eA*e[5mC]*e[5mC]*l[5mC]*e[5mC]*e[5mC]*e[5mC]*lT*e[5mC]*eA*e[5mC]*l[5mC]*eT*eT*eG*lG*eT*eT*e[5mC]*e[5mC]; antisense) | 0.925 fold change | 
CO-7158 (antisense eA*eG*eG*eT*eG*eG*eA*eG*e[5mC]*eA*eA*eA*e[5mC]*eT*eA*eG*eG*e[5mC]*eA*e[5mC]) | 1.229 fold change | 
CO-4522 (antisense e[5mC]*eA*e[5mC]*eT*eG*eG*e[5mC]*e[5mC]*e[5mC]*eA*eT*e[5mC]*eA*eA*eT*eT*eG*e[5mC]*eA*eT) | 1.027 fold change | 
CO-11217 (antisense eG*eTlG*eG*lA*eGl[5mC]*eA*lA*eAl[5mC]eT*lA*eGlG*e[5mC]*lA*e[5mC]eT*eG) |  | ABCB11 FC mRNA (5 μM ASO vs. untreated): 2.10 fold change
CO-7037 (antisense e[5mC]*eT*eG*eT*eA*e[5mC]*eA*eT*eT*eT*eA*eG*eA*eG*eA*e[5mC]*eA*eA*eA*eG) | 1.136 fold change | 
CO-6976 (antisense eT*e[5mC]*e[5mC]*eT*eG*eA*eA*eG*eT*eG*eG*eA*eG*eG*eT*eG*eG*eT*eG*eG) | 1.373 fold change | 
CO-4507 (antisense eG*eA*eA*eG*eA*eA*eT*eG*eG*eG*eA*eG*e[5mC]*eA*eA*eT*e[5mC]*e[5mC]*eG*e[5mC]) | 0.992 fold change | 
CO-11202: ASO containing PO-modifications identified in the Table 13 screen in PHHs (antisense eT*eG*eTeT*eT*eT*eG*e[5mC]eT*eT*eG*eG*eTe[5mC]*eA*eA*eG*eAeG*eG) |  | ABCB11 mRNA fold change (PHHs, 5 μM dose (FIG. 14)): ~2 fold; ABCB11 mRNA fold change (PHHs, 10 μM dose (FIG. 14)): ~3.5 fold; ABCB11 mRNA expression, dose response (PHHs, comparison study with OCA, elafibranor, fenofibrate (FIG. 14)): dose-dependent increase; ABCB11 FC mRNA (5 μM ASO vs. untreated): 1.50 fold change
CO-7150: derivative ASO with additional chemical modifications based on parent ASO CO-4517 (antisense e[5mC]*e[5mC]*eT*eT*eA*dG*dG*dA*eG*dG*dA*dT*dT*eA*dT*dT*dT*eA*eA*e[5mC]*e[5mC]*eT) | 1.505 fold change | 
CO-7006 (antisense eG*eT*eG*eG*eA*eT*eG*eT*eA*eG*eA*eT*eG*eA*eA*eT*eG*eG*e[5mC]*eA*eA*eG) | 1.279 fold change | 
CO-7007 (antisense eG*eT*eG*eG*eA*dT*dG*dT*eA*dG*dA*dT*dG*eA*dA*dT*dG*eG*e[5mC]*eA*eA*eG) | 0.963 fold change | 
CO-4508 (antisense eG*eT*eA*eG*eG*eA*eA*eG*eT*eT*eG*eA*eA*eT*eG*eA*eG*eT*eT*eG) | 1.185 fold change | 
